Where a name gives a salt, the structure may show the parent alone.
Key:
[1] = tested on: pyramidal cells in the hippocampal CA-1 subfield; assay: Delayed Neuronal Death (DND) Inhibitory Activity in Gerbils (transient ischemia, bilateral common carotid artery occlusion); format: in vivo; conditions: for DND inhibition (score of neuronal death in the hippocampal CA-1 subfield): given at reperfusion after 5-minute ischemia, score 0 (0-10% death) to 4 (75-100% death), control 4.00, n=5, **: p < 0.01 (Wilcoxon's U test)
Description: Delayed Neuronal Death (DND) Inhibitory Activity in Gerbils
The delayed neuronal death protective effect of the compound of the invention was confirmed by an experiment using gerbils. This test is the most widely used for all relevant in vivo evaluation protocols and it is reported that any drug showing DND inhibitory activity in this test system can be expected to be clinically effective in humans [GENDAI-IRYO, 24, 129-133 (1992), Neurology 1987, 37, 1281-1287).
Male gerbils weighing 60-80 g were anesthetized with pentobarbital sodium 35 mg/kg i.p. and placed in supine position. After the skin in the cervical region was incised, the bilateral common carotid arteries were exposed and sutures were placed around each artery. Both ends of each suture was introduced into a polyethylene tube and in suturing the incised wound, the tube was secured to the cervical skin with the suture emerged from the other end of the tube. On the following day, with the animal under no anesthesia, both ends of the suture were gently pulled out and the carotid artery snared by the suture was urged in a bent position into the tube to thereby occlude the carotid artery. After a transient ischemic loading of 5 minutes' duration by occlusion of the bilateral common carotid arteries, the arteries were reperfused. After 7 days, the brain was excised and fixed. A section centered around the hippocampus was prepared and Nissle-stained with 0.05% cresyl violet and the pyramidal cells in the hippocampal CA-1 subfield were microscopically examined for degeneration and death. The degree of neuronal death was scored according to the following criteria.
Criteria for evaluation of neuronal death in the hippocampal CA-1 subfield

Acute Toxicity Study = format: in vivo
Procedure: Male SD rats (Slc:SD, Japan SLC) were used. The rats were purchased at 7 weeks of age and the animals which went through a week-long quarantine and acclimation were used in groups of 6. The dose volume was 5 ml/kg for intraperitoneal administration and 10 ml/kg for intravenous administration. […] The drug solutions were prepared using physiological saline and filtered through a 0.22 μm bacterial filter.

NMDA receptor = assay: NMDA-Induced Convulsion Inhibitory Activity; format: in vivo, Mice; conditions: 20 mg/kg, i.p. 30 minutes before NMDA 200 mg/kg i.p.
Procedure: NMDA-Induced Convulsion Inhibitory Activity
Mice were intraperitoneally dosed with 200 mg/kg of N-methyl-D-aspartate (NMDA) and observed for the consequent convulsion and death over a period of 30 minutes after administration. As test drugs, the compound of Example 1, compound of Example 2, compound of Reference Example 10, and compound of Reference Example 12 were used and each was administered intraperitoneally 30 minutes before administration of NMDA.

[2] = background art; cited from earlier work
delayed neuronal death = conditions: background art; cited from earlier work
[3] = tested on: cerebral infarction (middle cerebral artery occlusion); assay: Protection of Cerebral Infarction in Rats With Middle Cerebral Artery Occlusion; format: in vivo, Male SD rats; conditions: 0.125 mg/kg, intravenously after middle cerebral artery occlusion
Description: Protection of Cerebral Infarction in Rats With Middle Cerebral Artery Occlusion
The cerebral infarction protective effect of the compound of the invention was confirmed in a rat middle cerebral artery occlusion model. This is an animal model of brain regional ischemia which is similar to human cerebral infarction and it is known that the model is useful as a therapeutic model as well (Cerebral Apoplexy Experiment Handbook, 91-97, 1990, published by ICP). Any drug showing cerebral infarction protective activity in this test system can be expected to be clinically effective in humans.
Male SD rats aged 7-8 weeks were anesthetized with ketamin hydrochloride 120-150 mg/kg, i.p. and the head was placed in lateral recumbent position on an operation table. […] Then, the frontal sections were photographed and using an image processor, the areas of infarction were measured. The percentage of the infarct area in the frontal section 6 mm caudal to frontal rostrum, that is at the striatal level, relative to the total area of the tissue section and the total infarct area of the 5 frontal sections prepared at 2 mm intervals from the frontal rostrum was calculated and the percentage of the total infarct area relative to the total area of all the sections was calculated. […]

Cc1nc(OCCCCCCN2CCCCC2)cc(-c2ccc(F)cc2)n1 [Example 3, 4-(4-Fluorophenyl)-2-methyl-6-(6-piperidinohexyloxy)primidine hydrochloride]
DND inhibition (score of neuronal death in the hippocampal CA-1 subfield) ([1]; 30 mg/kg, i.p.): 0.60 | general condition of animals (Acute Toxicity Study; rat, in vivo, ip): no remarkable change

Cc1cc(-c2ccc(F)cc2)cc(OCCCN2CCCCC2)n1.Cl [Example 16, 4-(4-Fluorophenyl)-2-methyl-6-(3-piperidinopropoxy)pyridine hydrochloride]
DND inhibition (score of neuronal death in the hippocampal CA-1 subfield) ([1]; 50 mg/kg i.p.): 0.60 | general condition of animals (Acute Toxicity Study; rat, in vivo, ip): no remarkable change

Cc1nc(OCCCN2CCCCC2)cc(-c2ccc(F)cc2)n1.Cl [Reference Example 10, 4-(4-Fluorophenyl)-2-methyl-6-(3-piperidinopropoxy)pyrimidine hydrochloride]
DND inhibition (score of neuronal death in the hippocampal CA-1 subfield) ([1]; 50 mg/kg i.p.): 0.60 | inhibition of NMDA-induced convulsion (NMDA receptor): did not inhibit | general condition of animals (Acute Toxicity Study; rat, in vivo, ip): no remarkable change

Cc1cc(OCCN2CCN(c3ccccc3)CC2)nc(-c2ccccc2)n1 [4-methyl-2-phenyl-6-[2-(4-phenylpiperazin-1-yl)ethyloxy]pyrimidine]
α-sympatholytic activity (sedation, hypotension, and vasodilation) [2]: has α-sympatholytic activity (sedation, hypotension, and vasodilation)

Cc1cc(OCCCCN2CCCCC2)nc(-c2ccc(F)cc2)n1.Cl [Example 4, 2-(4-Fluorophenyl)-4-methyl-6-(4-piperidinobutoxy)pyrimidine hydrochloride]
DND inhibition (score of neuronal death in the hippocampal CA-1 subfield) ([1]; 50 mg/kg i.p.): 0.60 | general condition of animals (Acute Toxicity Study; rat, in vivo, ip): no remarkable change

Cc1nc(OCCCCN2CCCCC2)cc(-c2ccc(F)cc2)n1.Cl [Example 2, 4-(4-Fluorophenyl)-2-methyl-6-(4-piperidinobutoxy)pyrimidine hydrochloride]
DND inhibition (score of neuronal death in the hippocampal CA-1 subfield) ([1]; 50 mg/kg i.p.): 0.80 | inhibition of NMDA-induced convulsion (NMDA receptor): did not inhibit | general condition of animals (Acute Toxicity Study; rat, in vivo, ip): no remarkable change

Cc1cc(OCCCN2CCCCC2)nc(-c2ccc(F)cc2)n1.Cl [Reference Example 12, 2-(4-Fluorophenyl)-4-methyl-6-(3-piperidinopropoxy)pyrimidine hydrochloride]
inhibition of NMDA-induced convulsion (NMDA receptor): did not inhibit

Cc1cc(-c2ccc(F)cc2)cc(OCCCCCN2CCCCC2)n1.Cl [Example 18, 4-(4-Fluorophenyl)-2-methyl-6-(5-piperidinopentyloxy)pyridine hydrochloride]
DND inhibition (score of neuronal death in the hippocampal CA-1 subfield) ([1]; 50 mg/kg i.p.): 0.80 | general condition of animals (Acute Toxicity Study; rat, in vivo, ip): no remarkable change

CCCn1cnc2c1c(=O)n(CCCCC(C)=O)c(=O)n2C [propentofylline]
effect against delayed neuronal death (delayed neuronal death): effective against delayed neuronal death

Cc1nc(OCCCCCN2CCCCC2)cc(-c2ccc(F)cc2)n1.Cl [Example 1, 4-(4-Fluorophenyl)-2-methyl-6-(5-piperidinopentyloxy)pyrimidine hydrochloride]
DND inhibition (score of neuronal death in the hippocampal CA-1 subfield) ([1]; 50 mg/kg i.p.): 0.60 | protection activity against the delayed neuronal death, post-ischemia dosing ([1]; single dose after a lapse of 1-2 hours after ischemia): exhibited a protection activity against the delayed neuronal death | inhibition of neuronal death in the rat model of persistent brain ischemia [3]: markedly inhibited neuronal death | inhibition of NMDA-induced convulsion (NMDA receptor): did not inhibit | general condition of animals (Acute Toxicity Study; intraperitoneal, observed daily for 7 days): no remarkable change | LD50 at 168 h (Acute Toxicity Study; rat, in vivo, ip, intraperitoneal): 65.8 mg/kg | LD50 at 168 h (Acute Toxicity Study; rat, in vivo, intravenous): 22.8 mg/kg

Cc1nc(OC(C)CCCN2CCCCC2)cc(-c2ccc(F)cc2)n1.Cl (centres unmarked) [Example 21, 4-(4-Fluorophenyl)-2-methyl-6-(1-methyl-4-piperidinobutoxy)pyrimidine hydrochloride]
DND inhibition (score of neuronal death in the hippocampal CA-1 subfield) ([1]; 50 mg/kg i.p.): 0.60 | general condition of animals (Acute Toxicity Study; rat, in vivo, ip): no remarkable change

From patent US5945426A, “Derivatives of pyrimidine for treating acute cerebrovascular disorders” (Nippon Shinyaku Co., Ltd., priority 1994, dated 1999)
